In the OligoGym collection:
These antisense oligonucleotides have a phosphorothioate backbone; sugars and methylation of C are not fully specified.

Target: NCOA1
Conditions: ASO
Note: test concentration or dose not given here.

First: AAAAGTGGTTATTCAGTC
Second: AAAGTGGTTATTCAGTCA
The remaining target (mRNA or protein) (fraction of control) of the first is lower: 0.62 for the first, 0.71 for the second.

Going from AAGTGGTTATTCAGTCAG to ACCTCCTGAAGAGTTAGC, the remaining target (mRNA or protein) (fraction of control) falls from 0.74 to 0.58.

Going from AGCTGTCAATGTCACTAA to AGTGGTTATTCAGTCAGT, the remaining target (mRNA or protein) (fraction of control) rises from 0.43 to 0.67.

Compared with ATGATGATGAAGCCGAAT, ATGCCAACAGGAGCAGTT is lower in remaining target (mRNA or protein) (fraction of control): 0.93 for the first, 0.51 for the second.

Compared with CATGATGATGAAGCCGAA, CCTTGACTACTTGATGAG is higher in remaining target (mRNA or protein) (fraction of control): 0.7 for the first, 0.77 for the second.

Compared with CCTTTAAAAGTGGTTATT, CGAATTCCACCACACTGG is lower in remaining target (mRNA or protein) (fraction of control): no less than 1 for the first, 0.69 for the second.

First: CTACGACCTGAAGAATGG
Second: CTCTTGTTCCATTCTCTT
The remaining target (mRNA or protein) (fraction of control) of the first is higher: 0.76 for the first, 0.61 for the second.

Going from CTGAAAGTCTGTCATTGT to CTGAGGACTGGAGAACTG, the remaining target (mRNA or protein) (fraction of control) falls from 0.95 to 0.44.

First: CTGAGGATTGATTCCAGT
Second: CTTCCTCACTAAATCTTC
The remaining target (mRNA or protein) (fraction of control) of the first is lower: 0.67 for the first, no less than 1 for the second.

Compared with CTTTAAAAGTGGTTATTC, GAGCTAATACACTGGTCT is lower in remaining target (mRNA or protein) (fraction of control): no less than 1 for the first, 0.55 for the second.

Compared with GCGTTGCTTGTTGTGGTG, GGATTGACCGAGGGATTT is higher in remaining target (mRNA or protein) (fraction of control): 0.43 for the first, 0.52 for the second.

Going from GGTCTGAGCTCTGCTGGC to GGTTATTCAGTCAGTAGC, the remaining target (mRNA or protein) (fraction of control) rises from 0.24 to 0.57.

GTCCCCGCCTACCAGATT and GTGGTTATTCAGTCAGTA are the same in remaining target (mRNA or protein) (fraction of control): 0.56 for the first, 0.56 for the second.

Compared with GTTCATTCCTGGCATCTG, TAAAAGTGGTTATTCAGT is higher in remaining target (mRNA or protein) (fraction of control): 0.66 for the first, 0.79 for the second.

Compared with TCATGATGATGAAGCCGA, TCATTAATTCCTCCTGAT is lower in remaining target (mRNA or protein) (fraction of control): 0.58 for the first, 0.48 for the second.

First: TCCATCTGTTCTTTCTTT
Second: TCCCCGTTTGAACTGGTA
The remaining target (mRNA or protein) (fraction of control) of the first is higher: 0.84 for the first, 0.63 for the second.

First: TCCGTGCTTGATGCCAGT
Second: TCCTTTAAAAGTGGTTAT
The remaining target (mRNA or protein) (fraction of control) of the first is lower: 0.34 for the first, 0.93 for the second.

Compared with TGCTTGGTCATAAAGGAT, TGGTTATTCAGTCAGTAG is lower in remaining target (mRNA or protein) (fraction of control): 0.74 for the first, 0.71 for the second.

Compared with TTAAAAGTGGTTATTCAG, TTAGCAGGGTCGGATGAA is lower in remaining target (mRNA or protein) (fraction of control): 0.79 for the first, 0.4 for the second.

First: TTCCTTTAAAAGTGGTTA
Second: TTTAAAAGTGGTTATTCA
The remaining target (mRNA or protein) (fraction of control) of the first is lower: 0.71 for the first, 0.74 for the second.

Target: WWP1
Conditions: ASO

AACATTGAAGCCGAATAGAG and AACTTCAGGTCATGTGAAGT cannot be ordered by remaining target (mRNA or protein) (fraction of control): no less than 1 for the first, no less than 1 for the second.

AAGGTTGTGGTCTCTCCCAT and AATTTCCCAGCCTTCTGGCA cannot be ordered by remaining target (mRNA or protein) (fraction of control): no less than 1 for the first, no less than 1 for the second.

ACTAGAGTGCTTGTAGGTAC and AGAATGGTAAAGAGAAACCA cannot be ordered by remaining target (mRNA or protein) (fraction of control): no less than 1 for the first, no less than 1 for the second.

Going from AGTATCAATAGATTCCAAAT to ATACATTGGGTTCAAAACTT, the remaining target (mRNA or protein) (fraction of control) falls from no less than 1 to 0.92.

Going from ATCATCAACTCTTCTTTCCC to ATCTGCAGACAATAGTTGTT, the remaining target (mRNA or protein) (fraction of control) rises from 0.7 to no less than 1.

Going from ATCTTTGTTCTCCTCAGTCA to ATGTCAACAGAAAAGTACAT, the remaining target (mRNA or protein) (fraction of control) rises from 0.92 to no less than 1.

Going from ATTCCAATTCTGCACTGGTA to ATTGATCTTTACATGACTAG, the remaining target (mRNA or protein) (fraction of control) falls from no less than 1 to 0.83.

Going from CACCATAATCAAGTCCTTCT to CATAAGCAATTTGTGGACCA, the remaining target (mRNA or protein) (fraction of control) rises from 0.52 to no less than 1.

CCTGGTGGCAAAGGTCCATA and CTGTTGGAAGGAATCTTCAA cannot be ordered by remaining target (mRNA or protein) (fraction of control): no less than 1 for the first, no less than 1 for the second.

Going from CTTTGTTCCCACCCTGATGG to GAATTAGAGGTGTCAGGCTC, the remaining target (mRNA or protein) (fraction of control) rises from 0.98 to no less than 1.

GAGACGGAGATGAAGGTGTG and GATCCACATAATAGGTTCTA cannot be ordered by remaining target (mRNA or protein) (fraction of control): no less than 1 for the first, no less than 1 for the second.

GCAGGCTCAGATGCGAGTGG and GCATAGCTCCCTGCAATTGG cannot be ordered by remaining target (mRNA or protein) (fraction of control): no less than 1 for the first, no less than 1 for the second.

GTTGGTGCAAATGAGGATGA and GTTGTTGTTCTGGTGTTATG are the same in remaining target (mRNA or protein) (fraction of control): 0.95 for the first, 0.95 for the second.

First: TAAGCGCCTCCTCAAGTCAT
Second: TATGAAAGATGGTCTGGATT
The remaining target (mRNA or protein) (fraction of control) of the first is lower: 0.86 for the first, 0.99 for the second.

Going from TATGATCAACAAAGTACCTT to TCAGACACTACTGGAGTACC, the remaining target (mRNA or protein) (fraction of control) falls from no less than 1 to 0.76.

Going from TCCCAGACTGCTGCCGTACA to TCCCATTGCGAGGATCTTTG, the remaining target (mRNA or protein) (fraction of control) rises from 0.47 to no less than 1.

Compared with TGTCTTGATTTGGCTGCTTC, TGTTGTTATCTCTTATCCAG is higher in remaining target (mRNA or protein) (fraction of control): 0.91 for the first, 0.92 for the second.

TTCAAAATTTCGGACAGATT and TTTCTGAGGAAGTCAGTATT cannot be ordered by remaining target (mRNA or protein) (fraction of control): no less than 1 for the first, no less than 1 for the second.

Work on TTTGTGTTATGATTCACAAA yielded a remaining target (mRNA or protein) (fraction of control) of 0.95.

Target: CHUK
Conditions: ASO

AAATATACACTTTGGATC and AAGTCTCCCCATCTTGAG cannot be ordered by remaining target (mRNA or protein) (fraction of control): no less than 1 for the first, no less than 1 for the second.

First: AATTTACACAATCAGATA
Second: ACAGACAGACGTTCCCGA
The remaining target (mRNA or protein) (fraction of control) of the first is higher: no less than 1 for the first, 0.85 for the second.

Compared with ACATTGCTGCCCTTTGTC, AGAACACATTGAGAGGCT is higher in remaining target (mRNA or protein) (fraction of control): 0.54 for the first, 0.8 for the second.

First: AGCAATACATTCAAATAC
Second: AGGATGTGTACTATCTTC
The remaining target (mRNA or protein) (fraction of control) of the first is higher: no less than 1 for the first, 0.79 for the second.

AGTATCTGGCTTTCTTTA and ATACAGTTTTACTTTTAT cannot be ordered by remaining target (mRNA or protein) (fraction of control): no less than 1 for the first, no less than 1 for the second.

Going from ATCTTGGCTGCTTCAAAG to ATTGGCATGGTTCAACTT, the remaining target (mRNA or protein) (fraction of control) rises from 0.6 to 0.69.

Compared with CAAGAGAGCGGGCAGAAC, CATAGTGGATGGCCTTTT is lower in remaining target (mRNA or protein) (fraction of control): no less than 1 for the first, 0.66 for the second.

First: CCCTGCATGAACATGACA
Second: CTACTAAACCGAACTTCT
The remaining target (mRNA or protein) (fraction of control) of the first is lower: 0.47 for the first, no less than 1 for the second.

Going from CTCTCCAAGTCAAGCTGA to CTGAGATCAAAGTGTTCT, the remaining target (mRNA or protein) (fraction of control) rises from 0.49 to no less than 1.

First: CTGAGGGTCCCAATTCAA
Second: CTTAATTGCTATTTTGAG
The remaining target (mRNA or protein) (fraction of control) of the first is lower: 0.88 for the first, no less than 1 for the second.

CTTAGCTCTAGGCGACAA and CTTCTGCTTACAGCCCAA are the same in remaining target (mRNA or protein) (fraction of control): 0.56 for the first, 0.56 for the second.

Compared with GACATAATCTGATCCTCC, GCTGTCACTGTAGGAGTG is lower in remaining target (mRNA or protein) (fraction of control): no less than 1 for the first, 0.75 for the second.

GGTAACAGAAAAGAAATT and TAATCTGGATTTCATGGC cannot be ordered by remaining target (mRNA or protein) (fraction of control): no less than 1 for the first, no less than 1 for the second.

Compared with TAGAAGAGGCACATCATG, TATTTTATGTATTATCTT is higher in remaining target (mRNA or protein) (fraction of control): 0.76 for the first, no less than 1 for the second.

TCAATACGAGACTGTAGT and TCTCCTCCAGAACAGTAT cannot be ordered by remaining target (mRNA or protein) (fraction of control): no less than 1 for the first, no less than 1 for the second.

Going from TCTCGATGTATAATTTTG to TGAGCACACGGTCCTGAC, the remaining target (mRNA or protein) (fraction of control) falls from no less than 1 to 0.79.

First: TGCCCAGCCGCTCCCGCA
Second: TGTGTAAGGCTTATTCTC
The remaining target (mRNA or protein) (fraction of control) of the first is lower: 0.85 for the first, 0.91 for the second.

TGTTCCAGAGATTCCATC and TTAAACTACAAAGGCTAT cannot be ordered by remaining target (mRNA or protein) (fraction of control): no less than 1 for the first, no less than 1 for the second.

Going from TTACTGAGGGCCACTTCC to TTCAGCCCACACTTTACG, the remaining target (mRNA or protein) (fraction of control) rises from 0.48 to 0.58.

First: TTCCCGATGCTGGTACAG
Second: TTCTTGAGAACCAGTATT
The remaining target (mRNA or protein) (fraction of control) of the first is lower: 0.63 for the first, no less than 1 for the second.

Target: MAP4K4
Conditions: ASO

First: AAACAAAATGGGACCCCTTA
Second: AAGTTTCACCTCTGCATTCT
The remaining target (mRNA or protein) (fraction of control) of the first is higher: 0.56 for the first, 0.26 for the second.

Compared with AATAAAACCAACGGCATGTT, ACTTCCTCCTCTTCTTCCTC is lower in remaining target (mRNA or protein) (fraction of control): 0.81 for the first, 0.41 for the second.

Compared with AGACCCGGGCTGGGATCCTG, AGAGGGCCGCTGCATGTAAT is lower in remaining target (mRNA or protein) (fraction of control): 0.92 for the first, 0.36 for the second.

First: AGAGTAGACTCACCAGGCAC
Second: AGGTGGCATCTGGGTTCTCA
The remaining target (mRNA or protein) (fraction of control) of the first is higher: 0.75 for the first, 0.46 for the second.

First: ATGTAAGCGATCCAGTCTTC
Second: ATGTCGACCCTTATAGACTT
The remaining target (mRNA or protein) (fraction of control) of the first is higher: 0.67 for the first, 0.39 for the second.

First: CACACAGAATCTCAGAGTTA
Second: CACCACAGATGTCACTGTTG
The remaining target (mRNA or protein) (fraction of control) of the first is higher: 0.61 for the first, 0.45 for the second.

Going from CACTGCATTTTCCAGGCGCT to CAGTTACAAGGAATTCCAAG, the remaining target (mRNA or protein) (fraction of control) rises from 0.49 to 0.93.

First: CCATCCAAGTGACCAGTTTC
Second: CCGCTTCTGTCTCTCTGCCA
The remaining target (mRNA or protein) (fraction of control) of the first is higher: 0.29 for the first, 0.25 for the second.

Going from CCTCATCTTCATAGCACACC to CCTCTCCTCTTCTTCTTTGC, the remaining target (mRNA or protein) (fraction of control) falls from 0.82 to 0.64.

Compared with CCTGCCTGGCTATTCTGCTG, CCTGCTGCAGTCTCAGGAAA is lower in remaining target (mRNA or protein) (fraction of control): 0.43 for the first, 0.37 for the second.

Work on CCTTGATATCCCGGTGAATC yielded a remaining target (mRNA or protein) (fraction of control) of 0.23.
